Experimental data taken from patent publication US12071424B2, “IRE1 small molecule inhibitors” (Cornell University, priority 2017, dated 2024).

What was measured:
IRE1a [1] = target: T1, IRE1a (Homo sapiens, UniProt O75460); assay: In vitro FRET assay (IRE1a cleavage of XBP1 RNA probe); assay type: biochemical; conditions: 2 nM SignalChem IRE1a, tested as Formic Acid Salt (37: HCl Salt)
T1 construct: purchased SignalChem
Summary of the method: Human

293T cells = assay: Growth assay (cytotoxicity); assay type: cell-based, human; conditions: Homo sapiens, HEK-293T, Formic Acid Salt (37: HCl Salt)
Protocol: A growth assay was performed to evaluate the compounds disclosed herein for cytotoxicity. Briefly, 5,000,000 293T cells were resuspended in 18 mL of cDMEM for a final concentration of […]. […] In a separate 96 well dilution plate, 199 uL cDMEM and 1 uL of DMSO or any one of the compounds disclosed herein (shown as Test Compound 1, 2, 3, 4, 5, or 6 below) were added to wells A4, A8, C4, C8, E4, E8, G4, and G8, 133.3 uL cDMEM was added to wells 1, 2, 3, 5, 6, and 7 in rows A, C, E and G of the dilution plate. Compounds were serially diluted leftwards in threefold dilutions (66.7 uL into 133.3 uL cDMEM). 20 uL of each dilution was transferred in duplicate (duplicates in vertical paired wells) to the cells plated in the 96-well plate shown in Table 5, to the total concentrations shown below. 200 uL cDMEM was addled to media wells (wells G5-H8). The plate was then placed in a humidified chamber for a […], and then photographed (media was more yellow in wells with potent cell growth). Absorbance was then measured at ˜[…] (lower for more acidic media) and ˜450 nM (higher for more acidic media).

IRE1a [2] = assay: IRE1a Endoribonuclease Nanoluciferase Assay (XBP1 luciferase reporter in 293T cells); assay type: cell-based, human; conditions: Homo sapiens, HEK-293T, ER stressor, tested as Formic Acid Salt (37: HCl Salt)
Summary of the method: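 293T cells transiently transfected with a PGK-Luc2-P2A-XBP1u-Nanoluciferase-Pest reporter, replated after 6 h, then treated next day with ER stressors ± inhibitors. After lysis, firefly luminescence then nanoluciferase luminescence read sequentially (1000 ms integration each).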

hERG channel = target: T2, hERG channel (Homo sapiens, UniProt Q12809); assay: hERG potassium ion channel automated planar clamp (QPatch) in stable CHO cell line; assay type: cell-based; conditions: Formic Acid Salt (37: HCl Salt), read-out: hERG channel blockade Mean IC50
T2 construct: expressed in transfected cells
T2 sequence (Q12809 whole entry): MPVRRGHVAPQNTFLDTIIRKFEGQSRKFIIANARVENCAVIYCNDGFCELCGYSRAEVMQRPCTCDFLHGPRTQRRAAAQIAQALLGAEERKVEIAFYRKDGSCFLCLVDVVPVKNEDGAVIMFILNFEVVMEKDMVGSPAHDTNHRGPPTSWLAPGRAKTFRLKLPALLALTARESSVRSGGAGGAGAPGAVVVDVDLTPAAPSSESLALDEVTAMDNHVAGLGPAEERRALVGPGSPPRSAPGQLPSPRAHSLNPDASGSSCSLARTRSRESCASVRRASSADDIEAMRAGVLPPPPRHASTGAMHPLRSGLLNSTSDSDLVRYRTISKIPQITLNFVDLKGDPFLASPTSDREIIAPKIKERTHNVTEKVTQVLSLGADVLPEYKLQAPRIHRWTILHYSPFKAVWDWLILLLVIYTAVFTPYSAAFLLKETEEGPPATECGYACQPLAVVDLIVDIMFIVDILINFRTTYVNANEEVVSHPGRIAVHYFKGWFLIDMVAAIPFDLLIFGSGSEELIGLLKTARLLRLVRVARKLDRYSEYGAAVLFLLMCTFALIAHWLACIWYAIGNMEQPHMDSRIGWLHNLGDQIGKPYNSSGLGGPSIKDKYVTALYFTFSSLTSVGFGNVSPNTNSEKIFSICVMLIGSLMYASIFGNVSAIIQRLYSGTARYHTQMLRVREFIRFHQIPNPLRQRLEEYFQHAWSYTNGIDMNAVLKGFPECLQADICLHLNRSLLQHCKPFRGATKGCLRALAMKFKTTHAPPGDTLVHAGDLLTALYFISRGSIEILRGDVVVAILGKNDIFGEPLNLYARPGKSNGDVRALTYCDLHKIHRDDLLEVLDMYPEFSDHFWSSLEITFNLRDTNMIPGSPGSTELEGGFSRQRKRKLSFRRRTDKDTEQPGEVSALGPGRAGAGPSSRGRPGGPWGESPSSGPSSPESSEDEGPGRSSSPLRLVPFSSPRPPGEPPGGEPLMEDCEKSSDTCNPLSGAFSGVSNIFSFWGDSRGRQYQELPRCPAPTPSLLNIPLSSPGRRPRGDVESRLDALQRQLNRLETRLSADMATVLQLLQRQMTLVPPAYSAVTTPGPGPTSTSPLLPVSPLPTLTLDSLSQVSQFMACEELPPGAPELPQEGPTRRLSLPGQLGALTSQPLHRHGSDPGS
Protocol: Blockade of the cardiac ion channel coded by the hERG gene can lead to cardiac arrhythmia. […] To determine the viability of the compounds disclosed herein as pharmacological agents that would not affect the hERG channel blockade, a standard automated planar clamp method was employed to determine the IC50 for various test compounds on their inhibition of the channel. An electrophysiological assay was prepared to measure the electric current passing through the hERG channel expressed in a stable CHO cell line by applying the planar clamp method. This assay was performed using the automated QPatch platform (Sophion, Denmark) which allows fast and accurate electrophysiological characterization of the hERG ion channel and the determination of IC50 values for the test compounds, as shown in Table 9.

in vivo = conditions: mouse, po, 30 mg/kg

T1 sequence (O75460 19-977): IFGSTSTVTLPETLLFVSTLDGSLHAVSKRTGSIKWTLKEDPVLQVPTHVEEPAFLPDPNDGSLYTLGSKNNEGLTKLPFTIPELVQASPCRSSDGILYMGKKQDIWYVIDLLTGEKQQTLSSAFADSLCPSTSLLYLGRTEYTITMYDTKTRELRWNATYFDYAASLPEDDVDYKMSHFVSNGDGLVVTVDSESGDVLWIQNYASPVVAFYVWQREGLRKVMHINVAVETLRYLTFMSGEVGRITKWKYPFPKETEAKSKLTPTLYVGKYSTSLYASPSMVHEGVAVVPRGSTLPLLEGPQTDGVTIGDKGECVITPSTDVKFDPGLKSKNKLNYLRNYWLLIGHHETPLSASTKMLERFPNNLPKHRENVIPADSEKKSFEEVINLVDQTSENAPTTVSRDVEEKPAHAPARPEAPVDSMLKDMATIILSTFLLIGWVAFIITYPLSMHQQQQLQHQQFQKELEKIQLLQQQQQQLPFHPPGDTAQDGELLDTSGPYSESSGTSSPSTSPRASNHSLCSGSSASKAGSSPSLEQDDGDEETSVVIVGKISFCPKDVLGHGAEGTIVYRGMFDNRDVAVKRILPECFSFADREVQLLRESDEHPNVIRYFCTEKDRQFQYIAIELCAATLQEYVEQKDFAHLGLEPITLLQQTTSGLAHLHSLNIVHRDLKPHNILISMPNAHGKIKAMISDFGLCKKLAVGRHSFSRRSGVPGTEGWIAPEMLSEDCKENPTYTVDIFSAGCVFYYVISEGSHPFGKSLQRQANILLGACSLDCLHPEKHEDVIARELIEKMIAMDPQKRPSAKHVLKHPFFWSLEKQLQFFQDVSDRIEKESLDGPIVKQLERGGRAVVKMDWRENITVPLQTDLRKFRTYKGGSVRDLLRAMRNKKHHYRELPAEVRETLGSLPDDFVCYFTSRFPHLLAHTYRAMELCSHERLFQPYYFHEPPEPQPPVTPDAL

Structure (SMILES) | IC50 (IRE1a [1]) [nM] | viability at 0.185 µM (293T cells) [%] | viability at 0.5556 µM (293T cells) [%] | viability at 1.667 µM (293T cells) [%] | viability at 5 µM (293T cells) [%] | EC50 (IRE1a [2]) [nM] | IC50 (hERG channel) [nM] | bioavailability (in vivo) [%]
CCc1cc(-c2cnc(NS(=O)(=O)c3ccccc3Cl)nc2C)cc2cnc(N[C@H]3CC[C@H](N)CC3)nc12 [Compound 23] | ≤ 5 | 75 to 100 | 50 to 75 | 50 to 75 | 75 to 100 | ≤ 5 |  | 
CCc1cc(-c2ccc(NS(=O)(=O)c3ccccc3Cl)c(F)c2)cc2cnc(N[C@H]3CC[C@H](N)CC3)nc12 [Compound 24, N-(4-(2-(((1r,4r)-4-aminocyclohexyl)amino)-8-ethylquinazolin-6-yl)-2-fluorophenyl)-2-chlorobenzene-sulfonamide] | ≤ 5 | 75 to 100 | 75 to 100 | 50 to 75 | 50 to 75 | ≤ 5 | 1000 to 10000 | 
CCc1cc(-c2cnc(NS(=O)(=O)c3ccccc3Cl)cn2)cc2cnc(N[C@H]3CC[C@H](N)CC3)nc12 [Compound 25, N-(S-(2-(((1r,4r)-4-aminocyclohexyl)amino)-8-ethylquinazolin-6-yl)pyrazin-2-yl)-2-chlorobenzene-sulfonamide] | ≤ 5 | 75 to 100 | 75 to 100 | 75 to 100 | 75 to 100 | ≤ 5 |  | 
CCc1cc(-c2ccc(NS(=O)(=O)c3ccccc3Cl)nc2)cc2cnc(N[C@H]3CC[C@H](N)CC3)nc12 [Compound 27, N-(5-(2-(((1r,4)-4-aminocyclohexyl)amino)-8-ethylquinazolin-6-yl)pyridin-2-yl)-2-chlorobenzene-sulfonamide] | ≤ 5 | 75 to 100 | 75 to 100 | 50 to 75 | 25 to 50 | ≤ 5 |  | 
CCc1cc(-c2ccc(NS(=O)(=O)c3ccccc3Cl)cn2)cc2cnc(N[C@H]3CC[C@H](N)CC3)nc12 [Compound 28] | ≤ 5 | 75 to 100 | 75 to 100 | 50 to 75 | 25 to 50 | ≤ 5 |  | 
CCc1cc(-c2cc(NS(=O)(=O)c3ccccc3Cl)n[nH]2)cc2cnc(N[C@H]3CC[C@H](N)CC3)nc12 [Compound 29, N-(5-(2-(((1r,4r)-4-aminocyclohexyl)amino)-8-ethylquinazolin-6-yl)-1H-pyrazol-3-yl)-2-chlorobenzene-sulfonamide] | ≤ 5 | 75 to 100 | 75 to 100 | 75 to 100 | 75 to 100 | 100 to 10000 |  | 
CCc1cc(-c2ccc(NS(=O)(=O)c3ccccc3Cl)nn2)cc2cnc(N[C@H]3CC[C@H](N)CC3)nc12 [Compound 32, N-(6-(2-(((1r,4r)-4-aminocyclohexyl)amino)-8-ethylquinazolin-6-yl)pyridazin-3-yl)-2-chlorobenzene-sulfonamide] | ≤ 5 | 75 to 100 | 75 to 100 | 50 to 75 | 25 to 50 | ≤ 5 |  | 
CCc1cc(-c2ncc(NS(=O)(=O)c3ccccc3Cl)cn2)cc2cnc(N[C@H]3CC[C@H](N)CC3)nc12 [Compound 33] | ≤ 5 | 75 to 100 | 75 to 100 | 75 to 100 | 50 to 75 | ≤ 5 |  | 
CCc1cc(NS(=O)(=O)c2ccccc2Cl)ccc1-c1cc(CC)c2nc(N[C@H]3CC[C@H](N)CC3)ncc2c1 [Compound 34, N-(4-(2-(((1r,4r)-4-aminocyclohexyl)amino)-8-ethylquinazolin-6-yl)-3-ethylphenyl)-2-chlorobenzene-sulfonamide] | ≤ 5 | 75 to 100 | 75 to 100 | 75 to 100 | ≤ 25 | 5 to 50 |  | 
CCc1cc(-c2ccc(NS(=O)(=O)c3ccccc3Cl)cc2F)cc2cnc(N[C@H]3CC[C@H](N)CC3)nc12 [Compound 35, N-(4-(2-(((1r,4r)-4-aminocyclohexyl)amino)-8-ethylquinazolin-6-yl)-3-fluorophenyl)-2-chlorobenzene-sulfonamide] | ≤ 5 | 75 to 100 | 75 to 100 | 50 to 75 | 25 to 50 | ≤ 5 |  | 
CCc1cc(-c2cnc(NS(=O)(=O)c3ccccc3Cl)nc2OC)cc2cnc(N[C@H]3CC[C@H](N)CC3)nc12 [Compound 46, N-(5-(2-(((1r,4r)-4-aminocyclohexyl)amino)-8-ethylquinazolin-6-yl)-4-methoxypyrimidin-2-yl)-2-chlorobenzene-sulfonamide] | ≤ 5 | 75 to 100 | 75 to 100 | 75 to 100 | 75 to 100 | ≤ 5 |  | 
CCc1cc(-c2ncc(NS(=O)(=O)c3ccccc3Cl)cc2F)cc2cnc(N[C@H]3CC[C@H](N)CC3)nc12 [Compound 52] | ≤ 5 | 75 to 100 | 75 to 100 | 75 to 100 | 50 to 75 | ≤ 5 |  | 
CCc1cc(-c2cnc(NS(=O)(=O)c3ccccc3Cl)c(F)c2)cc2cnc(N[C@H]3CC[C@H](N)CC3)nc12 [Compound 55, N-(5-(2-(((1r,4r)-4-aminocyclohexyl)amino)-8-ethylquinazolin-6-yl)-3-fluoropyridin-2-yl)-2-chlorobenzene-sulfonamide] | ≤ 5 | 75 to 100 | 75 to 100 | 75 to 100 | 75 to 100 | ≤ 5 |  | 
CCc1cc(-c2nnc(NS(=O)(=O)c3ccccc3Cl)cc2OC)cc2cnc(N[C@H]3CC[C@H](N)CC3)nc12 [Compound 65, N-(6-(2-(((1r,4r)-4-aminocyclohexyl)amino)-8-ethylquinazolin-6-yl)-5-methoxypyridazin-3-yl)-2-chlorobenzene-sulfonamide] | ≤ 5 | 75 to 100 | 75 to 100 | 75 to 100 | 50 to 75 | 5 to 50 |  | 
CCc1cc(-c2nnc(NS(=O)(=O)c3ccccc3Cl)cc2C)cc2cnc(N[C@H]3CC[C@H](N)CC3)nc12 [Compound 67, N-(6-(2-(((1r,4r)-4-aminocyclohexyl)amino)-8-ethylquinazolin-6-yl)-5-methylpyridazin-3-yl)-2-chlorobenzene-sulfonamide] | ≤ 5 | 75 to 100 | 75 to 100 | 50 to 75 | 50 to 75 | 5 to 50 |  | 
CCc1cc(-c2ccc(NS(=O)(=O)c3ccccc3Cl)c(F)c2)cc2cnc(N[C@H]3CC[C@H](N(C)C)CC3)nc12 [Compound 69, 2-chloro-N-(4-(2-(((1r,4r)-4-(dimethylamino)cyclohexyl)amino)-8-ethylquinazolin-6-yl)-2-fluorophenyl) benzene-sulfonamide] | ≤ 5 |  | 75 to 100 | 50 to 75 | 50 to 75 | ≤ 5 | 10000 to 50000 | 
CCc1cc(-c2ccc(NS(=O)(=O)c3ccccc3Cl)c(F)c2C)cc2cnc(N[C@H]3CC[C@H](N)CC3)nc12 [Compound 71, N-(4-(2-(((1r,4r)-4-aminocyclohexyl)amino)-8-ethylquinazolin-6-yl)-2-fluoro-3-methylphenyl)-2-chlorobenzene-sulfonamide] | ≤ 5 | 75 to 100 | 75 to 100 | 50 to 75 | 25 to 50 | ≤ 5 |  | 
CCc1cc(-c2ccc(NS(=O)(=O)c3ccccc3Cl)nc2C)cc2cnc(N[C@H]3CC[C@H](N(C)C)CC3)nc12 [Compound 91, 2-chloro-N-(5-(2-(((1r,4r)-4-(dimethylamino)cyclohexyl)amino)-8-ethylquinazolin-6-yl)-6-methylpyridin-2-yl)benzenesulfonamide] |  |  |  |  |  | ≤ 5 |  | 66
